In brackets after ≈: the same amount, converted by molar mass. Several values for one entry are separate records, joined by “and”; a condition that tells them apart may be missing. Equal values may be shown once. Entries after “also recorded” stand apart in the source; their conditions may differ. Where a name gives a salt, the structure may show the parent alone. Read-outs that look alike come from different tables or passages of the source.
How the values were obtained:
SARS-CoV-2 PLpro [1] = molecular target: T1, SARS-CoV-2 PLpro (Severe acute respiratory syndrome coronavirus 2, UniProt P0DTD1); test: biochemical
in vitro [2] = settings: human, microsomes, pH 7.4
MERS-CoV PLpro [3] = molecular target: T2, MERS-CoV PLpro (Middle East respiratory syndrome-related coronavirus, UniProt K9N7C7); test: biochemical; type: binding
T2 sequence (K9N7C7 1482-1803 limits assumed): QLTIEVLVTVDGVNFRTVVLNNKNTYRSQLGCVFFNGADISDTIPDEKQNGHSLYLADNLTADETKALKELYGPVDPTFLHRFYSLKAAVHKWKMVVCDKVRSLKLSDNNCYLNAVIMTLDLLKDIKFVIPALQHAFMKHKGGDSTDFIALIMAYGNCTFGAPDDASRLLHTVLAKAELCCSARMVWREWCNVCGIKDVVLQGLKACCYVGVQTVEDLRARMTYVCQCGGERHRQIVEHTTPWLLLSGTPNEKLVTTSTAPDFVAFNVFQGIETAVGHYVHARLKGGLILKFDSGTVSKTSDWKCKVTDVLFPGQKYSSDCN

SARS-CoV PLpro [4] = molecular target: T3, SARS-CoV PLpro (Severe acute respiratory syndrome coronavirus, UniProt P0C6X7); test: biochemical; type: binding
SARS-CoV-2 PLpro [5] = molecular target: T1, SARS-CoV-2 PLpro; test: biochemical; type: binding
physchem = settings: kinetic from dmso stock
MERS-CoV PLpro [6] = molecular target: T2, MERS-CoV PLpro; test: biochemical
SARS-CoV-2 = type: cell-based
in vitro [7] = settings: mouse, microsomes, pH 7.4
SARS-CoV PLpro [8] = molecular target: T3, SARS-CoV PLpro; test: biochemical
in vitro [9] = settings: human, Caco-2, pH 7.4
[10] = test system: human DUBs (panel of 41 enzymes); type: biochemical

COc1cc(CNC(=O)C2CCN(C(C)c3cccc(-c4ccccc4)c3)CC2)ccn1 (centres unmarked) [Compound 1, 1-{1-[(1,1′-biphenyl)-3-yl]ethyl}-N-[(2-methoxypyridin-4-yl)methyl]piperidine-4-carboxamide]
loss of potency relative to parent 5c (SARS-CoV-2 PLpro [1]): 20 fold
IC50 (SARS-CoV-2 PLpro [1]; calculated IC50): 18000 nM

COc1cc(CNC(=O)C2CCN(C(C)c3csc4ccccc34)CC2)ccn1 (centres unmarked) [Compound 2, 1-{1-[benzo(b)thiophen-3-yl]ethyl}-N-[(2-methoxypyridin-4-yl)methyl]piperidine-4-carboxamide formate]
IC50 (SARS-CoV-2 PLpro [1]; calculated IC50): 4500 nM

COc1cc(CNC(=O)C2CCN(C(C)c3c(C)sc4ccccc34)CC2)ccn1 (centres unmarked) [Compound 3, N-[(2-methoxypyridin-4-yl)methyl]-1-{1-[2-methylbenzo(b)thiophen-3-yl]ethyl}piperidine-4-carboxamide]
potency against SARS-CoV-2 PLpro in words (SARS-CoV-2 PLpro [1]): completely inactive

C[C@H](c1cccc2ccccc12)N1CCC(C(=O)NCc2cccc(F)c2)CC1 [Compound 3k]
half-life (in vitro [2]): 7 min
microsomal CLint (in vitro [2]): 247 µL/min/mg
Mouse plasma protein binding: 95.3 % bound
efflux in Caco-2 (Caco-2 cell monolayers): no evidence of efflux
Kd (MERS-CoV PLpro [3]): > 20000 nM
Kd (MERS-CoV PLpro [3]; read-out: KD Exp1, MERS-CoV): > 20000 nM
Kd (MERS-CoV PLpro [3]; read-out: KD Exp3, MERS-CoV): > 20000 nM
Kd (SARS-CoV PLpro [4]; KD Exp1, SARS-CoV): 662 nM
Kd (SARS-CoV PLpro [4]; KD Exp2, SARS-CoV): 795 nM
Kd (SARS-CoV PLpro [4]; KD Exp3, SARS-CoV): 686 nM
Kd (SARS-CoV PLpro [4]; KD, SARS-CoV): 714 nM and 710 nM
Kd (SARS-CoV-2 PLpro [5]; KD Exp1, SARS-CoV-2 PLpro WT): 2000 nM
Kd (SARS-CoV-2 PLpro [5]; KD Exp2, SARS-CoV-2 PLpro WT): 2350 nM
Kd (SARS-CoV-2 PLpro [5]; KD Exp3, SARS-CoV-2 PLpro WT): 2850 nM
Kd (SARS-CoV-2 PLpro [5]; KD, SARS-CoV-2): 2400 ± 430 nM
solubility kinetic (physchem; pH 2, aqueous buffer): > 100 µg/mL
solubility kinetic (physchem; pH 6.5, aqueous buffer): 12.5 to 25 µg/mL (≈ 32 to 64 µM)
IC50 (MERS-CoV PLpro [6]): > 98000 nM
reduction of viral titer (SARS-CoV-2): 1 log
half-life (in vitro [7]): 5 min
microsomal CLint (in vitro [7]): 337 µL/min/mg
IC50 (SARS-CoV PLpro [8]): 860 nM
IC50 (SARS-CoV-2 PLpro [1]; IC50, SARS-CoV-2): 1020 nM
Papp A→B (in vitro [9]): 35 ×10⁻⁶ cm/s
Papp B→A (in vitro [9]): 36 ×10⁻⁶ cm/s

COc1cc(CNC(=O)C2CCN(C(C)c3cc(Cl)ccc3OC)CC2)ccn1 (centres unmarked) [Compound 4, 1-(1-(5-chloro-2-methoxyphenyl)ethyl)-N-((2-methoxypyridin-4-yl)methyl)piperidine-4-carboxamide]
IC50 (SARS-CoV-2 PLpro [1]; calculated IC50): 4600 nM

CCOc1ccc(Cl)cc1C(C)N1CCC(C(=O)NCc2ccnc(OC)c2)CC1 (centres unmarked) [Compound 5, 1-[1-(5-chloro-2-ethoxyphenyl)ethyl]-N-[(2-methoxypyridin-4-yl)methyl]piperidine-4-carboxamide]
IC50 (SARS-CoV-2 PLpro [1]; calculated IC50): 7900 nM

COc1cc(CNC(=O)C2CCN([C@H](C)c3cccc4ccccc34)CC2)ccn1 [Compound 5c]
half-life (in vitro [2]): 16 min
microsomal CLint (in vitro [2]): 110 µL/min/mg
Mouse plasma protein binding: 86.3 % bound
efflux in Caco-2 (Caco-2 cell monolayers): no evidence of efflux
inhibition of human DUBs [10]: did not inhibit any of the human DUBs tested; also recorded: does not notably inhibit any of the tested human DUBs
Kd (MERS-CoV PLpro [3]): > 20000 nM
Kd (MERS-CoV PLpro [3]; read-out: KD Exp1, MERS-CoV): > 20000 nM
Kd (MERS-CoV PLpro [3]; read-out: KD Exp3, MERS-CoV): > 20000 nM
Kd (SARS-CoV PLpro [4]; KD Exp1, SARS-CoV): 833 nM
Kd (SARS-CoV PLpro [4]; KD Exp2, SARS-CoV): 880 nM
Kd (SARS-CoV PLpro [4]; KD Exp3, SARS-CoV): 853 nM
Kd (SARS-CoV PLpro [4]; KD, SARS-CoV): 855 nM and 860 nM
Kd (SARS-CoV-2 PLpro [5]; KD Exp1, SARS-CoV-2 PLpro WT): 4110 nM
Kd (SARS-CoV-2 PLpro [5]; KD Exp2, SARS-CoV-2 PLpro WT): 2450 nM
Kd (SARS-CoV-2 PLpro [5]; KD Exp3, SARS-CoV-2 PLpro WT): 2600 nM
Kd (SARS-CoV-2 PLpro [5]; KD, SARS-CoV-2): 3050 ± 920 nM
solubility kinetic (physchem; pH 2, aqueous buffer): > 100 µg/mL
solubility kinetic (physchem; pH 6.5, aqueous buffer): 50 to 100 µg/mL (≈ 124 to 248 µM)
IC50 (MERS-CoV PLpro [6]): > 98000 nM
reduction of viral titer (SARS-CoV-2): 1 log
half-life (in vitro [7]): 20 min
microsomal CLint (in vitro [7]): 86 µL/min/mg
IC50 (SARS-CoV PLpro [8]): 500 nM
IC50 (SARS-CoV-2 PLpro [1]; IC50, SARS-CoV-2): 720 nM
IC50 (SARS-CoV-2 PLpro [1]; calculated IC50): 860 nM
Papp A→B (in vitro [9]): 53 ×10⁻⁶ cm/s
Papp B→A (in vitro [9]): 55 ×10⁻⁶ cm/s

COc1cc(CNC(=O)C2CCN(C(C)c3c(OC)ccc4ccccc34)CC2)ccn1.O=CO (centres unmarked) [Compound 6, 1-[1-(2-methoxynaphthalen-1-yl)ethyl]-N-[(2-methoxypyridin-4-yl)methyl]piperidine-4-carboxamide formate]
potency against SARS-CoV-2 PLpro in words (SARS-CoV-2 PLpro [1]): not tolerated

CCOc1ccc2ccccc2c1C(C)N1CCC(C(=O)NCc2ccnc(OC)c2)CC1 (centres unmarked) [Compound 7, 1-[1-(2-ethoxynaphthalen-1-yl)ethyl]-N-[(2-methoxypyridin-4-yl)methyl]piperidine-4-carboxamide]
potency against SARS-CoV-2 PLpro in words (SARS-CoV-2 PLpro [1]): not tolerated

COc1cc(CNC(=O)C2CCN(C(C)c3ccc(F)c4ccccc34)CC2)ccn1 (centres unmarked) [Compound 8, 1-[1-(4-fluoronaphthalen-1-yl)ethyl]-N-[(2-methoxypyridin-4-yl)methyl]piperidine-4-carboxamide]
loss of potency relative to parent 5c (SARS-CoV-2 PLpro [1]): 3 fold
IC50 (SARS-CoV-2 PLpro [1]; calculated IC50): 2200 nM
